According to patent US10265333B2, “Lipid nanomaterial containing lysophosphatidylcholine or derivative thereof and method for preparing same” (priority 2013, dated 2019):

Experiments:
[1] = test system: hair-clipped dorsal back skins of mice; experiment: Local irritation test in mice after single subcutaneous administration; assay type: in vivo; settings: for Clinical signs: Normal appearance (% of mice) / Clinical signs: Normal appearance (mice/group) / Clinical signs: Skin ulcerative lesions (mice/group): male ICR mice, 14 days
Experimental: In order to evaluate the local irritation of the LPC-containing lipid nanoparticle formulation (LPC-F; 18:0 LPC concentration: 10 mg/ml) prepared in example 1, 20, 10, and 5 ml/kg (18:0 LPC 200, 100, and 50 mg/kg) were single subcutaneously administered to hair-clipped dorsal back skins of mice. Based on the “Testing Guidelines for Safety Evaluation of Drugs” [2009] in Notification No. 2009-116 issued by the Korea Food and Drug Administration, the changes in mortality, body weight, clinical signs, gross and histopathological findings around injection sites during 14 days were compared between the LPC-containing lipid nanoparticle formulations and equal concentrations of lysophosphatidylcholine saline suspension (LPC-API) 10 mg/ml treated group. In the present test, saline was used as negative control, and the highest dosage 200 mg/kg was set based on the maximum permissible dosage 20 ml/kg in rodents (Flecknell, 1996; KFDA Guidelines, Notification 2009-116, 2009; OECD Guidelines, #423, 2001). The dosages were set to 10 and 5 ml/kg in middle and lowest dosage groups, respectively.
Animal male ICR mice were 6-wk old upon receipt (body weight ranged in 30-32 g), and were 10-wk old after acclimatization for 28 days (body weight ranged in 36.4-49.0 g). The animals were distributed into the following groups for the test.
All data were expressed as mean±standard deviation (SD) of five mice. Multiple comparison tests for different dosage groups were conducted. Variance homogeneity was examined using the Levene test (Levene A, Clin Otalary, 1981; 6:145-51). […] Statistical analyses were conducted using SPSS (Release 14.0 K, SPSS Inc., USA; Ludbrook, Clin Exp Pharmacol Physiol, 1997; 24:294-6). A p-value <0.05 was considered statistically significant.

[2] = test system: heparinized rat (SD rat) bloods; experiment: Erythrocyte aggregation in heparinized rat blood (semiquantitative score); assay type: cell-based; settings: all six different concentrations (stock to 32-fold diluted)
Experimental: In order to evaluate the degree of hemolysis and erythrocyte aggregation induced by LPC-containing lipid nanoparticles (LPC-F; 18:0 LPC concentration: 10 mg/ml) prepared in example 1, 200 μl of saline, distilled water, six different concentration solutions (stock, 2, 4, 8, 16 and 32-fold diluted solutions) of LPC-F, or non-formulated lysophosphatidylcholine (LPC-API) 10 mg/ml concentrated saline solution were directly added into 1 ml of collected heparinized rat (SD rat) bloods, and then, incubated at 37° C. in shaking incubator at 100 rpm for 3 hrs. The prepared LPC-F was fold-diluted with saline to prepare six different concentrations of LPC-F. LPC-API 10 mg/ml concentrated solution was prepared through dispersion in saline, and then fold-diluted with saline to prepare six different concentrations of LPC-API Five independent experiments were repeatedly conducted. […] After the incubation in shaking incubator at 100 rpm, the formed erythrocyte aggregation was semi-quantitatively evaluated, and the OD values were calculated for the supernatant in each tube, which was prepared by centrifuging the incubated samples at 12,500 rpm for 10 minutes, and then reading the OD at 570 nm, respectively. Hemolysis was calculated by equation 1 below. […]
Erythrocyte aggregation was evaluated based on semiquantative scores as follows: […]

[3] = test system: heparinized rat (SD rat) bloods; experiment: Hemolysis in heparinized rat blood (OD 570 nm of supernatant); assay type: cell-based
Experimental: In order to evaluate the degree of hemolysis and erythrocyte aggregation induced by LPC-containing lipid nanoparticles (LPC-F; 18:0 LPC concentration: 10 mg/ml) prepared in example 1, 200 μl of saline, distilled water, six different concentration solutions (stock, 2, 4, 8, 16 and 32-fold diluted solutions) of LPC-F, or non-formulated lysophosphatidylcholine (LPC-API) 10 mg/ml concentrated saline solution were directly added into 1 ml of collected heparinized rat (SD rat) bloods, and then, incubated at 37° C. in shaking incubator at 100 rpm for 3 hrs. The prepared LPC-F was fold-diluted with saline to prepare six different concentrations of LPC-F. LPC-API 10 mg/ml concentrated solution was prepared through dispersion in saline, and then fold-diluted with saline to prepare six different concentrations of LPC-API Five independent experiments were repeatedly conducted. If possible, blood taken from same rats was used in each independent experiment. After the incubation in shaking incubator at 100 rpm, the formed erythrocyte aggregation was semi-quantitatively evaluated, and the OD values were calculated for the supernatant in each tube, which was prepared by centrifuging the incubated samples at 12,500 rpm for 10 minutes, and then reading the OD at 570 nm, respectively. Hemolysis was calculated by equation 1 below. The hemolytic reaction was considered positive if the hemolytic percentage was greater than 5%. Hemolytic percentage (%)=(OD sample−OD negative/(OD positive−OD negative)×100 [Equation 1]
Where negative=saline, and positive=distilled water
OD values and semiquantative erythrocyte aggregation scores were expressed by mean±standard deviation of five independent experiments. Multiple comparison tests for different dose groups were conducted. Variance homogeneity was examined using the Levene test (Levene A, Clin Otalary, 1981; 6:145-51). […] Statistical analyses were conducted using SPSS (Release 14.0 K, SPSS Inc., USA; Ludbrook, Clin Exp Pharmacol Physiol, 1997; 24:294-6). A p-value p<0.05 was considered statistically significant.

[4] = single s.c. 5 ml/kg (LPC 50 mg/kg)
[5] = single s.c. 10 ml/kg (LPC 100 mg/kg)
[6] = single s.c. 20 ml/kg (LPC 200 mg/kg)

lysophosphatidylcholine [LPC-API]
Degree of ulcerative skin lesions around injection sites ([1]; 200, 100, 50 mg/kg treated groups, from 48 hrs after end of treatment): slight [1+] or moderate [2+]
Histopathology: skin ulcerative lesions (% of mice) ([1]; single s.c. 50 mg/kg): 60%
Necropsy: skin ulcerative lesions around injection sites (% of mice) ([1]; single s.c. 50 mg/kg): 60%
Histopathology: skin ulcerative lesions (% of mice) ([1]; single s.c. 100 mg/kg): 60%
Necropsy: skin ulcerative lesions around injection sites (% of mice) ([1]; single s.c. 100 mg/kg): 60%
Histopathology: skin ulcerative lesions (% of mice) ([1]; single s.c. 200 mg/kg): 100%
Necropsy: skin ulcerative lesions around injection sites (% of mice) ([1]; single s.c. 200 mg/kg): 100%
Histopathology, skins around injection sites: Normal (mice/group) [1, 4]: 2/5
Histopathology: hUL degree 1+ Slight (mice/group) [1, 4]: 3/5
Histopathology: hUL degree 2+ Moderate (mice/group) [1, 4]: 0/5
Histopathology: hUL degree 3+ Severe (mice/group) [1, 4]: 0/5
Histopathology: hUL, histopathological skin ulcerative lesions (mice/group) [1, 4]: 3/5
Necropsy, skins around injection sites: Normal (mice/group) [1, 4]: 2/5
Necropsy: gUL degree 1+ Slight (mice/group) [1, 4]: 3/5
Necropsy: gUL degree 2+ Moderate (mice/group) [1, 4]: 0/5
Necropsy: gUL degree 3+ Severe (mice/group) [1, 4]: 0/5
Necropsy: gUL, gross skin ulcerative lesions (mice/group) [1, 4]: 3/5
Clinical signs: Normal appearance (% of mice) [1, 4]: (40%)
Clinical signs: Normal appearance (mice/group) [1, 4]: 2/5
Clinical signs: Skin ulcerative lesions (mice/group) [1, 4]: 3/5
Histopathology, skins around injection sites: Normal (mice/group) [1, 5]: 2/5
Histopathology: hUL degree 1+ Slight (mice/group) [1, 5]: 3/5
Histopathology: hUL degree 2+ Moderate (mice/group) [1, 5]: 0/5
Histopathology: hUL degree 3+ Severe (mice/group) [1, 5]: 0/5
Histopathology: hUL, histopathological skin ulcerative lesions (mice/group) [1, 5]: 3/5
Necropsy, skins around injection sites: Normal (mice/group) [1, 5]: 2/5
Necropsy: gUL degree 1+ Slight (mice/group) [1, 5]: 3/5
Necropsy: gUL degree 2+ Moderate (mice/group) [1, 5]: 0/5
Necropsy: gUL degree 3+ Severe (mice/group) [1, 5]: 0/5
Necropsy: gUL, gross skin ulcerative lesions (mice/group) [1, 5]: 3/5
Clinical signs: Normal appearance (% of mice) [1, 5]: (40%)
Clinical signs: Normal appearance (mice/group) [1, 5]: 2/5
Clinical signs: Skin ulcerative lesions (mice/group) [1, 5]: 3/5
Histopathology, skins around injection sites: Normal (mice/group) [1, 6]: 0/5
Histopathology: hUL degree 1+ Slight (mice/group) [1, 6]: 3/5
Histopathology: hUL degree 2+ Moderate (mice/group) [1, 6]: 1/5
Histopathology: hUL degree 3+ Severe (mice/group) [1, 6]: 1/5
Histopathology: hUL, histopathological skin ulcerative lesions (mice/group) [1, 6]: 5/5
Necropsy, skins around injection sites: Normal (mice/group) [1, 6]: 0/5
Necropsy: gUL degree 1+ Slight (mice/group) [1, 6]: 3/5
Necropsy: gUL degree 2+ Moderate (mice/group) [1, 6]: 1/5
Necropsy: gUL degree 3+ Severe (mice/group) [1, 6]: 1/5
Necropsy: gUL, gross skin ulcerative lesions (mice/group) [1, 6]: 5/5
Clinical signs: Normal appearance (% of mice) [1, 6]: (0%)
Clinical signs: Normal appearance (mice/group) [1, 6]: 0/5
Clinical signs: Skin ulcerative lesions (mice/group) [1, 6]: 5/5
Skin findings around injection sites (conclusion) ([1]; single subcutaneous treatment, compared with negative vehicle control): severe skin ulcerative lesions
Erythrocyte aggregation scores as compared with non-treated or negative saline controls [2]: significant increases
Hemolytic percentage (%) ([3]; 2-fold diluted solution, 200 μl in 1 ml rat blood, 37° C., 3 hrs): 148.65±15.01%
Hemolytic percentage (%) ([3]; 4-fold diluted solution, 200 μl in 1 ml rat blood, 37° C., 3 hrs): 129.70±7.23%
Hemolytic percentage (%) ([3]; 8-fold diluted solution, 200 μl in 1 ml rat blood, 37° C., 3 hrs): 117.67±5.97%
Hemolytic percentage (%) ([3]; 16-fold diluted solution, 200 μl in 1 ml rat blood, 37° C., 3 hrs): 78.74±3.30%
Hemolytic percentage (%) ([3]; 32-fold diluted solution, 200 μl in 1 ml rat blood, 37° C., 3 hrs): 26.86±6.40%
Hemolytic percentage (%) ([3]; stock (LPC 10 mg/ml), 200 μl in 1 ml rat blood, 37° C., 3 hrs): 157.68±10.44%
Hemolytic percentage (%) ([3]; throughout all different concentrations including the lowest 32-fold diluted solutions): greater than 5%
